Measured values published in US20230159546A1, “NOVEL SPIROPYRROLIDINE DERIVED ANTIVIRAL AGENTS” (Enanta Pharmaceuticals, Inc., priority 2021, published 2023).
Where two headings read alike, the source gives them in different places.

Experiments:
[1] = system: 229E human corona virus (hCoV); experiment: 229E live virus assay (CPE, ATPlite readout, MRC-5 cells); assay type: cell-based, hCoV-229E; conditions: Human coronavirus 229E, MRC5, 144 h, read-out: 229E EC50
SARS-CoV-2 3CL-protease = SARS-CoV-2 3CL-protease (Severe acute respiratory syndrome coronavirus 2, UniProt P0DTD1); experiment: SARS-CoV-2 3C-like (3CL) protease fluorescence assay (FRET); assay type: biochemical; conditions: recombinant SARS-CoV-2 3CL-protease 10 nM, 30 min preincubation at RT, duplicate; read-out: FRET IC50
[2] = MRC-5 cells, MOI 0.05, 6 days at 34° C., ATPlite, duplicate

Row | SMILES | EC50 [1, 2] | IC50 (SARS-CoV-2 3CL-protease) | EC50 [1]
1 | N#C[C@@H]1C[C@@]2(CN1C(=O)[C@H](Cc1ccccc1)C(=O)Nc1cc(F)cc(F)c1)C(=O)Nc1ccccc12 [Example 26] | > 1 µM | > 1 µM | –
2 | N#C[C@@H]1C[C@@]2(CN1C(=O)C(F)(Cc1ccccc1)C(=O)Nc1ccccc1)C(=O)Nc1ccccc12 (stereo partly drawn) [Example 27] | > 1 µM | > 1 µM | –
3 | N#C[C@@H]1C[C@@]2(CN1C(=O)C(F)(Cc1ccccc1)C(=O)Nc1cc(F)cc(F)c1)C(=O)Nc1ccccc12 (stereo partly drawn) [Example 28] | > 1 µM | > 1 µM | –
4 | CC(=O)N1C[C@]2(C[C@H]1C#N)C(=O)Nc1ccccc12 [Example 29] | 0.1 to 1 µM | > 1 µM | –
5 | N#C[C@@H]1C[C@@]2(CN1C(=O)c1ccccc1)C(=O)Nc1ccccc12 [Example 30] | 0.1 to 1 µM | > 1 µM | –
6 | CC(C)CC(C(=O)N1C[C@]2(C[C@H]1C#N)C(=O)Nc1ccccc12)c1ccc(NC(=O)c2cc3c(F)cccc3[nH]2)cn1 (stereo partly drawn) [Example 31] | > 1 µM | > 1 µM | –
7 | Cc1ccc(S(=O)(=O)N2C[C@]3(C[C@H]2C#N)C(=O)Nc2ccccc23)cc1 [Example 32] | – | > 1 µM | > 1 µM
8 | N#C[C@@H]1C[C@@]2(CN1S(=O)(=O)c1ncc(-c3ccc(F)cc3)s1)C(=O)Nc1ccccc12 [Example 33] | > 1 µM | > 1 µM | –
9 | Cc1nc(-c2ccc(S(=O)(=O)N3C[C@]4(C[C@H]3C#N)C(=O)Nc3ccccc34)s2)cs1 [Example 34] | > 1 µM | > 1 µM | –
10 | N#C[C@@H]1C[C@@]2(CN1S(=O)(=O)c1ccc(Oc3ccccc3)cc1)C(=O)Nc1ccccc12 [Example 35] | > 1 µM | > 1 µM | –
11 | N#C[C@@H]1C[C@@]2(CN1C(=O)c1ccc(-c3ccccc3)cc1)C(=O)Nc1ccccc12 [Example 36] | > 1 µM | > 1 µM | –
12 | N#C[C@@H]1C[C@@]2(CN1C(=O)c1cc3ccccc3nc1Cl)C(=O)Nc1ccccc12 [Example 37] | > 1 µM | > 1 µM | –
13 | N#C[C@@H]1C[C@@]2(CN1C(=O)NC1CCCCC1)C(=O)Nc1ccccc12 [Example 38] | < 0.1 µM | > 1 µM | –
14 | N#C[C@@H]1C[C@@]2(CN1CC1CCCCC1)C(=O)Nc1ccccc12 [Example 39] | > 1 µM | > 1 µM | –
15 | CC(C)C(=O)N1C[C@]2(C[C@H]1C#N)C(=O)Nc1ccccc12 [Example 40] | > 1 µM | > 1 µM | –
16 | CC(C)(C)C(=O)N1C[C@]2(C[C@H]1C#N)C(=O)Nc1ccccc12 [Example 41] | > 1 µM | > 1 µM | –
17 | N#C[C@@H]1C[C@@]2(CN1C(=O)C1CC1)C(=O)Nc1ccccc12 [Example 42] | > 1 µM | > 1 µM | –
18 | N#C[C@@H]1C[C@@]2(CN1C(=O)C1CCCCC1)C(=O)Nc1ccccc12 [Example 43] | > 1 µM | > 1 µM | –
19 | N#C[C@@H]1C[C@@]2(CN1C(=O)c1ccc3cccnc3c1)C(=O)Nc1ccccc12 [Example 44] | > 1 µM | > 1 µM | –
20 | CCNC(=O)N1C[C@]2(C[C@H]1C#N)C(=O)Nc1ccccc12 [Example 46] | > 1 µM | > 1 µM | –
21 | CC(C)NC(=O)N1C[C@]2(C[C@H]1C#N)C(=O)Nc1ccccc12 [Example 47] | > 1 µM | > 1 µM | –
22 | N#C[C@@H]1C[C@@]2(CN1C(=O)NC1CC1)C(=O)Nc1ccccc12 [Example 48] | – | > 1 µM | > 1 µM
23 | N#C[C@@H]1C[C@@]2(CN1C(=O)NC1CCCC1)C(=O)Nc1ccccc12 [Example 49] | 0.1 to 1 µM | > 1 µM | –
24 | N#C[C@@H]1C[C@@]2(CN1C(=O)Nc1ccccc1)C(=O)Nc1ccccc12 [Example 50] | > 1 µM | > 1 µM | –
25 | N#C[C@@H]1C[C@@]2(CN1C(=O)NCc1ccccc1)C(=O)Nc1ccccc12 [Example 51] | 0.1 to 1 µM | > 1 µM | –
26 | N#C[C@@H]1C[C@@]2(CN1C(=O)Nc1ccc3cccnc3c1)C(=O)Nc1ccccc12 [Example 52] | > 1 µM | > 1 µM | –
27 | N#C[C@@H]1C[C@@]2(CN1C(=O)NCc1nccs1)C(=O)Nc1ccccc12 [Example 53] | > 1 µM | > 1 µM | –
